Assay results: PubChem BioAssay (NCI)
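Step 1: Grow cells in 96-well plates. Step 2: Expose to compound for 48 hours at 5 concentrations. Step 3: Interpolate endpoints linearly; if unreached, use highest concentration. GI50 is the concentration that inhibits growth by half. TGI denotes the concentration required for complete inhibition of growth.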

What was measured:
Test in all cases: NCI tumour cell line growth inhibition, 48 h
[1] = test system: SF-539 CNS
[2] = test system: A549 NSCLC
[3] = test system: RXF 393 renal
[4] = test system: UACC-62 melanoma
[5] = test system: DU-145 prostate
[6] = test system: SR leukemia
[7] = test system: BT-549 breast
[8] = test system: SN12C renal
[9] = test system: SK-MEL-2 melanoma
[10] = test system: CCRF-CEM leukemia
[11] = test system: ACHN renal
[12] = test system: UACC-257 melanoma
[13] = test system: SNB-75 CNS
[14] = test system: NCI-H226 lung
[15] = test system: SNB-19 CNS
[16] = test system: OVCAR-4 ovarian
[17] = test system: OVCAR-5 ovarian
[18] = test system: UO-31 renal
[19] = test system: KM12 colon
[20] = test system: OVCAR-8 ovarian
[21] = test system: HCT-15 colon
[22] = test system: EKVX NSCLC
[23] = test system: MCF7 breast
[24] = test system: MDA-MB-435
[25] = test system: RPMI-8226 leukemia
[26] = test system: SF-268 CNS
[27] = test system: A498 renal
[28] = test system: IGROV1 ovarian
[29] = test system: HOP-92 NSCLC
[30] = test system: MDA-MB-231 breast
[31] = test system: HL-60(TB) leukemia
[32] = test system: SK-MEL-5 melanoma
[33] = test system: NCI-H522 lung
[34] = test system: MOLT-4 leukemia
[35] = test system: NCI-H460 lung
[36] = test system: K-562 leukemia
[37] = test system: NCI/ADR-RES ovarian
[38] = test system: NCI-H23 lung
[39] = test system: HT29 colon
[40] = test system: SW-620 colon
[41] = test system: MALME-3M melanoma
[42] = test system: T-47D breast
[43] = test system: SK-MEL-28 melanoma
[44] = test system: PC-3 prostate
[45] = test system: 786-0 renal
[46] = test system: HS 578T breast
[47] = test system: HOP-62 NSCLC
[48] = test system: SF-295 CNS
[49] = test system: CAKI-1 renal
[50] = test system: TK-10 renal
[51] = test system: COLO 205 colon
[52] = test system: U251 CNS
[53] = test system: HCC-2998 colon
[54] = test system: M14 melanoma
[55] = test system: SK-OV-3 ovarian
[56] = test system: LOX IMVI melanoma
[57] = test system: HCT-116 colon

CN1CCN(C(=O)c2ccc(NC(=O)Nc3ccc(-c4nc(N5CCOCC5)c5cccn5n4)cc3)cc2)CC1
GI50 [1]: 0.0481 µM
TGI [1]: 0.393 µM
GI50 [2]: 0.0606 µM
TGI [2]: 12.1 µM
GI50 [3]: 0.0307 µM
TGI [3]: 0.175 µM
GI50 [4]: 0.034 µM
TGI [4]: 0.189 µM
GI50 [5]: 0.0348 µM
TGI [5]: 12 µM
GI50 [6]: 0.0465 µM
TGI [6]: 8.7 µM
GI50 [7]: 0.104 µM
TGI [7]: 0.789 µM
GI50 [8]: 0.0331 µM
TGI [8]: 11.8 µM
GI50 [9]: 0.0596 µM
TGI [9]: 1.39 µM
GI50 [10]: 0.0473 µM
TGI [10]: 5.67 µM
GI50 [11]: 0.279 µM
TGI [11]: 12.8 µM
GI50 [12]: 0.102 µM
TGI [12]: 0.576 µM
GI50 [13]: 0.0134 µM
TGI [13]: 0.0684 µM
GI50 [14]: 0.0306 µM
TGI [14]: 0.345 µM
GI50 [15]: 0.0363 µM
TGI [15]: 11.1 µM
GI50 [16]: 0.0149 µM
TGI [16]: 0.095 µM
GI50 [17]: 0.0439 µM
TGI [17]: 12.8 µM
GI50 [18]: 0.304 µM
TGI [18]: 5.82 µM
GI50 [19]: 0.0787 µM
TGI [19]: 13.7 µM
GI50 [20]: 0.0486 µM
TGI [20]: > 100 µM
GI50 [21]: 0.548 µM
TGI [21]: 12.6 µM
GI50 [22]: 0.042 µM
TGI [22]: 0.703 µM
GI50 [23]: < 0.012 µM
TGI [23]: 2.73 µM
GI50 [24]: 0.032 µM
TGI [24]: 0.41 µM
GI50 [25]: 0.287 µM
TGI [25]: 2.02 µM
GI50 [26]: 0.0399 µM
TGI [26]: 12 µM
GI50 [27]: 0.0172 µM
TGI [27]: 0.0664 µM
GI50 [28]: 0.0255 µM
TGI [28]: 1.2 µM
GI50 [29]: 0.0193 µM
TGI [29]: 0.0759 µM
GI50 [30]: 0.0431 µM
TGI [30]: 11.3 µM
GI50 [31]: 0.101 µM
TGI [31]: 5.21 µM
GI50 [32]: 0.0803 µM
TGI [32]: 0.394 µM
GI50 [33]: 0.0357 µM
TGI [33]: 16.9 µM
GI50 [34]: 0.0443 µM
TGI [34]: 2.11 µM
GI50 [35]: 0.0498 µM
TGI [35]: 12 µM
GI50 [36]: 0.0963 µM
TGI [36]: 14.7 µM
GI50 [37]: 8.06 µM
TGI [37]: > 81.6 µM
GI50 [38]: 0.0711 µM
TGI [38]: 19 µM
GI50 [39]: 0.0487 µM
GI50 [40]: 0.0634 µM
TGI [40]: 12.1 µM
GI50 [41]: 0.0295 µM
TGI [41]: 0.194 µM
GI50 [42]: 0.0126 µM
TGI [42]: 0.0567 µM
GI50 [43]: 0.0465 µM
TGI [43]: 0.77 µM
GI50 [44]: 0.0488 µM
TGI [44]: 19.3 µM
GI50 [45]: 0.0632 µM
TGI [45]: 1.11 µM
GI50 [46]: 0.0177 µM
TGI [46]: 0.082 µM
GI50 [47]: 0.025 µM
TGI [47]: 0.232 µM
GI50 [48]: 0.0322 µM
TGI [48]: 0.239 µM
GI50 [49]: 0.542 µM
TGI [49]: 10.7 µM
GI50 [50]: 0.18 µM
TGI [50]: 0.874 µM
GI50 [51]: 0.0414 µM
TGI [51]: 1.38 µM
GI50 [52]: 0.0464 µM
TGI [52]: 10.3 µM
GI50 [53]: 0.0352 µM
TGI [53]: 11.8 µM
GI50 [54]: 0.0966 µM
TGI [54]: 10.3 µM
GI50 [55]: 0.0223 µM
TGI [55]: 0.121 µM
GI50 [56]: 0.0206 µM
TGI [56]: 1.74 µM
GI50 [57]: 0.0507 µM
TGI [57]: 15.2 µM
